{"source": "paper PMC7555839", "about": "(Frontiers in Microbiology, 2020)", "system": "MRSA strain 43484", "assay": "Mouse skin (wound) infection model, topical treatment", "type": "in vivo, Staphylococcus aureus", "details": "50 μl topical twice daily for 3 days, female mice, skin biopsies day 4", "method": "To study the effect of topical treatment with JBC 1847 against MRSA strain 43484, a mouse skin infection model was established. Initially, female mice (18–22 g) were orally treated with 45 μl nurofen (20 mg ibuprofen/ml) and anaesthetized with 0.15 ml s.c. of Zoletil mix. The fur was removed from an area of 6 cm^2 and a part of epidermis was subsequently scraped off to obtain a 1 cm^2 superficial skin lesion. The mice were inoculated with 10 μl of a saline solution containing approximately 10^7 CFU. The day after inoculation, topical treatment with 50 μl test compound was initiated and performed twice daily for a 3-day period. Fucidic acid was included as a positive control, and vehicle treatment was included as a negative control. Through the entire study, the behavior and clinical signs of the mice were carefully observed. Mice were killed the day after last treatment, and skin biopsies from the wounded area were collected. The skin samples were homogenized using a Dispomixer and serially diluted in saline/Triton X. To determine the bacterial concentration, 20 μl spots were transferred to MRSA Brilliance agar plates (Oxoid, Thermo Scientific, Roskilde, Denmark) and incubated 20–48 h at 35°C.\nData were statically analyzed and visualized using RStudio v3.6.3 ([R Core Team, 2020]) and Microsoft excel. In general, the values reflecting the bacterial concentration (CFU/ml) were transformed into a logarithmic scale. In the growth and viability assay, the mean numbers of the bacterial concentrations from the triplicates were plotted against time and standard deviations shown as error bars. To investigate differences in bacterial concentration between treatment groups in the in vivo assay, multiple group comparisons were performed using ANOVA and P < 0.05 considered significant. The data was visualized in a standard box plot.", "data": [{"smiles": "CC(C)=CCCC(C)CC[N+](C)(C)CCCN1c2ccccc2Sc2ccccc21", "note": "(centres unmarked) [JBC 1847]", "values": [{"measurement": "Reduction of bacterial counts compared with the vehicle", "setting": "1% solution", "value": 3.0, "unit": "log10 CFU"}, {"measurement": "Reduction of bacterial counts compared with the vehicle", "setting": "2%", "value": 3.7, "unit": "log10 CFU"}]}]}
